Assay results as given in ChEMBL document CHEMBL5338761 (J Med Chem, 2023).
One block for each molecule: values may come before it.

How the values were obtained:
DNA polymerase theta [1] = target: T1, DNA polymerase theta (Homo sapiens, UniProt O75417); assay: Inhibition of POLQ (unknown origin); format: single protein
DNA polymerase theta [2] = target: T1, DNA polymerase theta; assay: Inhibition of POLQ PD (unknown origin) (1819 to 2590 residues) incubated for 15 mins by fluorescence based analysis
DNA polymerase theta [3] = target: T1, DNA polymerase theta; assay: Inhibition of POLQ PD (unknown origin) (1819 to 2590 residues) incubated for 15 mins by luminescence based analysis
DNA polymerase theta [4] = target: T1, DNA polymerase theta; assay: Inhibition of N-terminal/C-termianl Flag-tagged POLQ (unknown origin) (2 to 2590 residues) expressed in baculovirus incubated for 30 mins by fluorescence based analysis
DNA polymerase theta [5] = target: T1, DNA polymerase theta; assay: Inhibition of POLQ PD (unknown origin) (1819 to 2590 residues) by fluorescence based analysis
DNA polymerase theta [6] = target: T1, DNA polymerase theta; assay: Inhibition of POLQ (unknown origin) incubated for 15 mins in presence of ATP and NADPH by absorbance based analysis
DNA polymerase theta [7] = target: T1, DNA polymerase theta; assay: Inhibition of POLQ (unknown origin) (1 to 987 residues) using […] as substrate incubated for 30 mins in presence of ATP relative to control
TERT-RPE1 [8] = assay: Antiproliferative activity against BRCA1 knockout human RPE-1 cells assessed as inhibition of cell growth by CellTiter-Glo assay; format: functional, cell-based
TERT-RPE1 [9] = assay: Antiproliferative activity against P53 knockout human RPE-1 cells assessed as inhibition of cell growth by CellTiter-Glo assay; format: functional, cell-based
TERT-RPE1 [10] = assay: Antiproliferative activity against P53 and BRCA1 knockout human RPE-1 cells assessed as inhibition of cell growth by CellTiter-Glo assay; format: functional, cell-based
TERT-RPE1 [11] = assay: Antiproliferative activity against BRCA1 knockout human RPE-1 cells assessed as fold change in rucaparib IC50 by CellTiter-Glo assay; format: functional
TOV21G = assay: Antiproliferative activity against HR knockout human TOV-21G cells assessed as fold change in olaparib IC50 by CellTiter-Glo assay; format: functional
TERT-RPE1 [12] = assay: Antiproliferative activity against human RPE-1 cells expressing wild type BRCA1 assessed as inhibition of cell growth by CellTiter-Glo assay; format: functional, cell-based
MCF7 = assay: Antiproliferative activity against human MCF7 cells assessed as inhibition of cell growth incubated for 6 days by CellTiter-Glo assay; format: functional, cell-based; conditions: MCF7, 144 h
HCT-116 = assay: Antiproliferative activity against human HCT-116 cells assessed as inhibition of cell growth incubated for 6 days by CellTiter-Glo assay; format: functional, cell-based; conditions: HCT-116, 144 h
PC-3 = assay: Antiproliferative activity against human PC-3 cells assessed as inhibition of cell growth incubated for 6 days by CellTiter-Glo assay; format: functional, cell-based; conditions: PC-3, 144 h
A549 = assay: Antiproliferative activity against human A549 cells assessed as inhibition of cell growth incubated for 6 days by CellTiter-Glo assay; format: functional, cell-based; conditions: A549, 144 h
[13] = Antiproliferative activity against human MDA-1986 cells assessed as inhibition of cell growth incubated for 6 days by CellTiter-Glo assay; format: functional, cell-based; conditions: MDA1986, 144 h

T1 sequence (O75417 whole entry, the tested form may be a part): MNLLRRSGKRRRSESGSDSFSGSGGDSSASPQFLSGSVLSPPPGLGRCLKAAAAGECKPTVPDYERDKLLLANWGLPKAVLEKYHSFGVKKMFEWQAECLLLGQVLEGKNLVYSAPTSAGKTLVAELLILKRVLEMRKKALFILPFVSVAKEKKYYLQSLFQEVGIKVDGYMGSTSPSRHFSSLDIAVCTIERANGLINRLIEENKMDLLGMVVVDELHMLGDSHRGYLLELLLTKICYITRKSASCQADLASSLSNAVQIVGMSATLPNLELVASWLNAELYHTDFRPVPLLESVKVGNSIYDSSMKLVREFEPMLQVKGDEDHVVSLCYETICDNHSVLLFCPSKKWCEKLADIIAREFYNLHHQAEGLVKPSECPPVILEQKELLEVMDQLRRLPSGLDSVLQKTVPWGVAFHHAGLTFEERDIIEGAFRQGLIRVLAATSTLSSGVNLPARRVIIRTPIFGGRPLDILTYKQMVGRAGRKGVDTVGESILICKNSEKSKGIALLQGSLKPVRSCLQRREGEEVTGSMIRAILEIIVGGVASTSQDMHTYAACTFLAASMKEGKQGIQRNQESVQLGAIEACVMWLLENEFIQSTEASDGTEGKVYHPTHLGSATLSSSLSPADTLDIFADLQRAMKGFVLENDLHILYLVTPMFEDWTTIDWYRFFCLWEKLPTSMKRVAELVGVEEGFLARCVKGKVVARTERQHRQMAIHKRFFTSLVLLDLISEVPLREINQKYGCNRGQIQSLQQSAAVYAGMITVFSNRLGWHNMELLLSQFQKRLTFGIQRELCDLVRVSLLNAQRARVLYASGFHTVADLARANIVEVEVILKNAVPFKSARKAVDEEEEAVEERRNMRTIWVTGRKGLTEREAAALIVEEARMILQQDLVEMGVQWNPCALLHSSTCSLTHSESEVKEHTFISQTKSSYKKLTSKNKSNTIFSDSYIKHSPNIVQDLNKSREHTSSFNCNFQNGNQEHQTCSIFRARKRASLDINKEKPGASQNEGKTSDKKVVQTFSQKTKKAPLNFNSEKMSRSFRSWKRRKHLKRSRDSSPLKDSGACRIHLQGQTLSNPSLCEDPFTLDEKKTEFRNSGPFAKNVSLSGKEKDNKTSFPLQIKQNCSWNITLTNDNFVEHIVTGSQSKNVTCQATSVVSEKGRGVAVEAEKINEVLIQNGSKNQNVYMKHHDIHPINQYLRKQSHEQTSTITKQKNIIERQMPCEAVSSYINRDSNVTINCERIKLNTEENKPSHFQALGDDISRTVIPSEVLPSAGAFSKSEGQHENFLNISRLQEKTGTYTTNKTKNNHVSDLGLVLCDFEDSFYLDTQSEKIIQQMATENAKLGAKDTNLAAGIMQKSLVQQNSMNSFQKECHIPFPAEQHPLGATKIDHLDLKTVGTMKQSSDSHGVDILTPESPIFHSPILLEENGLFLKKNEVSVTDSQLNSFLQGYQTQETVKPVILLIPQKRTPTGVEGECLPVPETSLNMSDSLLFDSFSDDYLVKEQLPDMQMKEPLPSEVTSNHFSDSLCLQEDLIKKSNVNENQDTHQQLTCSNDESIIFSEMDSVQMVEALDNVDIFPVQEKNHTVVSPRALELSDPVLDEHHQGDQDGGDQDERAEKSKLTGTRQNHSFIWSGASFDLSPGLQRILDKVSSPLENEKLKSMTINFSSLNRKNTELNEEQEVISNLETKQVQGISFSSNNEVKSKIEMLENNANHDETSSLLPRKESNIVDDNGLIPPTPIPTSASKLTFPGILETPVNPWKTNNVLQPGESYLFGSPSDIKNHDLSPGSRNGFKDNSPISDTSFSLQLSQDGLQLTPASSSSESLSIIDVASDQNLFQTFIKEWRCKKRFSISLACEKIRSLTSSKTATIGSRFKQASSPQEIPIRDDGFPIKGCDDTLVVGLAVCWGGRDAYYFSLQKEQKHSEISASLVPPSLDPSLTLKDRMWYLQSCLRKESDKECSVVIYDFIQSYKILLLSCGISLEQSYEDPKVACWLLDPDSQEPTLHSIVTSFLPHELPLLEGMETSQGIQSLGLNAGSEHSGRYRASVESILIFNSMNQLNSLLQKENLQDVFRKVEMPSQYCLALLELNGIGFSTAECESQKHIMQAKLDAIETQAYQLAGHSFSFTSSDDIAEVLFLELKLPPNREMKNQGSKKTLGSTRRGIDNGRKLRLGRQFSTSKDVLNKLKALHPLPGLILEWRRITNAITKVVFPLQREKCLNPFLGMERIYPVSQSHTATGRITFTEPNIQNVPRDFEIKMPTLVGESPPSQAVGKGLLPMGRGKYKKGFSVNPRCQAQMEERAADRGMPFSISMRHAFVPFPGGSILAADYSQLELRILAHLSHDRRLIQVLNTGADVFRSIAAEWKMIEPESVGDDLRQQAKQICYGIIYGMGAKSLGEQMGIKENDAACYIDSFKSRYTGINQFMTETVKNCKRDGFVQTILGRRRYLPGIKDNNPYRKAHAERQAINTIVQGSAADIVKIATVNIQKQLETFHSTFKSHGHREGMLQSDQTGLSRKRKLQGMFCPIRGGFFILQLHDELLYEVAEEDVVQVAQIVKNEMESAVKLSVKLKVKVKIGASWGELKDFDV

Structure (SMILES): Cc1nc(NCC(=O)N(C)c2ccccc2)c(C#N)c(C)c1Cl
IC50 (DNA polymerase theta [1]): < 200 nM

Structure (SMILES): Cc1ccc(NC(=O)Nc2cncc(-c3ccc(OCC4(C)CCOC4)c(C)c3)n2)cn1 (centres undefined)
IC50 (DNA polymerase theta [4]): 2 nM

Structure (SMILES): N#Cc1c(C(F)(F)F)cc(C(F)(F)F)nc1NCc1nccn1-c1ccc(F)cc1
IC50 (DNA polymerase theta [5]): < 200 nM

Structure (SMILES): COc1cccc(-c2cc(C(=O)N[C@H]3CC[C@H](c4ccc(OC5CCNCC5)cc4)CC3)ccc2OC)c1
inhibition (DNA polymerase theta [7]): 70%

Structure (SMILES): Cc1nc(NCc2nccn2-c2ccccc2)c(C#N)c(C)c1Cl
IC50 (DNA polymerase theta [1]): < 200 nM

Structure (SMILES): CO[C@@H]1[C@@H](OC(N)=O)[C@@H](O)[C@H](Oc2ccc3c(O)c(NC(=O)c4ccc(O)c(CC=C(C)C)c4)c(=O)oc3c2C)OC1(C)C [NOVOBIOCIN]
IC50 (TERT-RPE1 [8]): 86 µM
IC50 (TERT-RPE1 [9]): 358 µM
IC50 (TERT-RPE1 [10]): 97.2 µM
fold change (FC) (TERT-RPE1 [11]): 20
fold change (FC) (TOV21G): 40

Structure (SMILES): COc1ccccc1-c1cc(C)ncc1C(=O)Nc1nnc(OCc2ccc(Cl)cn2)s1
IC50 (DNA polymerase theta [6]): ≤ 200 nM

Structure (SMILES): Cc1cc(-c2nc(NC(=O)N[C@H]3CCCNC3)cs2)ccc1OC[C@]1(C)CCOC1
IC50 (DNA polymerase theta [4]): 7 nM

Structure (SMILES): Cc1cc(C(F)(F)F)cc(N2C(=O)OC[C@H]2c2nc(Cl)cn2-c2ccc(F)c(Cl)c2)n1
IC50 (DNA polymerase theta [2]): 5 nM

Now from value to molecule, other results behind:

IC50 (DNA polymerase theta [1]): < 200 nM
Structure (SMILES): Cc1cccc(N(C)C(=O)[C@@H]2CCCN2c2nc(C)cc(C(F)(F)F)c2C#N)c1

IC50 (DNA polymerase theta [2]): ≤ 200 nM
IC50 (DNA polymerase theta [3]): ≤ 200 nM
Structure (SMILES): CN(C(=O)[C@@H]1CCCN1c1cc(C(F)(F)F)cc(C(F)(F)F)n1)c1ccc(F)cc1

IC50 (DNA polymerase theta [6]): ≤ 200 nM
Structure (SMILES): COc1cnc(Cl)cc1-c1cc(C)ncc1C(=O)Nc1nnc(OCc2ccc(Cl)cn2)s1

IC50 (DNA polymerase theta [2]): 200 nM
IC50 (DNA polymerase theta [3]): 200 nM
Structure (SMILES): Cc1nc(SCC(=O)N(C)c2ccccc2)c(C#N)c(C)c1Cl

IC50 (DNA polymerase theta [5]): < 200 nM
Structure (SMILES): CN(C(=O)CNc1nc(C(F)(F)F)cc(C(F)(F)F)c1C#N)c1ccc(F)cc1

inhibition (DNA polymerase theta [7]): 50%
IC50 (MCF7): 460 nM
IC50 (HCT-116): 800 nM
IC50 (PC-3): 60 nM
IC50 (A549): 130 nM
Structure (SMILES): Cc1c(OC2CCN(C)CC2)ccc2cc(NC(=O)Nc3ccc(C(F)(F)F)cc3)c(=O)oc12
IC50 (TERT-RPE1 [8]): 0.16 µM
IC50 (TERT-RPE1 [12]): 450 nM
IC50 [13]: 900 nM

IC50 (DNA polymerase theta [1]): < 200 nM
Structure (SMILES): CN(C(=O)[C@@H]1CCCN1c1cc(C(F)(F)F)ccn1)c1ccc(F)cc1
